Source: patent US20180116216A1, “MICROBICIDAL COMPOSITION CONTAINING GLUTARALDEHYDE AND ORTHOPHENYLPHENOL” (Dow Global Technologies LLC, priority 2015, published 2018)
Where two headings read alike, the source gives them in different places.

System: Bacterial Pool
Experiment: Dow time-kill test in pH 7.4 hand dish-washing liquid, with synergy index (Kull)
Format: cell-based
Settings: for Concentration required to achieve >=4 Log bacterial counts reduction of tested biocides: 37° C., pool of seven bacteria 1×10^6~1×10^7 CFU/ml in pH 7.4 hand dish-washing liquid, active ingredient basis, unit ppm from b8, not given

SMILES | Concentration required to achieve >=4 Log bacterial counts reduction of tested biocides (24 h) [ppm] | Concentration for >=4 log bacterial kill (Table 4, Bacterial Pool, 24 hours, glutaraldehyde alone (QA) or in the mixture (Qa), read-out: Minimum Inhibitory Concentration (ppm) Glut) [µg/mL] | Minimum Inhibitory Concentration (ppm) Glut (Table 5, Bacterial Pool, 24 hours, glutaraldehyde alone (QA) or in the mixture (Qa)) [ppm] | Concentration for >=4 log bacterial kill (24 h, read-out: Minimum Inhibitory Concentration (ppm) SOPP) [µg/mL] | Minimum Inhibitory Concentration (ppm) SOPP (Table 5, Bacterial Pool, 24 hours, SOPP alone (QB) or in the mixture (Qb)) [ppm]
O=CCCCC=O [Glutaraldehyde, Pentane-1,5-dial] | 100 | 100 | 100 |  | 
Oc1ccccc1-c1ccccc1.[Na] [SOPP alone, sodium orthophenylphenol] | 358.5 |  |  | 358 | 358.5
